Active and inactive are the calls of the source. The calls are words filed in the database; no cut-off is given here.
Experiments:
[1] = target: Signal transducer and activator of transcription 3 (Homo sapiens) (UniProt P40763); assay: Inhibition of Flag-tagged STAT3 (unknown origin) dimerization transfected in HEK293T cells at 0.3 to 3 uM incubated for 24 hrs followed by IL-6 stimulation and measured after 1 hr by immunoprecipitation assay; assay type: cell-based; settings: dose 0.3-3 µM, time 25.0 hrs
[2] = Toxicity in BALB/c mouse xenografted with human MGC-803 cells assessed as morphological change in heart at 5 mg/kg,ip administrated for 21 consecutive days by hematoxylin and eosin staining method; assay type: organism-based; settings: in vivo
[3] = Toxicity in BALB/c mouse xenografted with human MGC-803 cells assessed as body weight loss at 15 mg/kg,ip administrated for 21 consecutive days; assay type: organism-based; settings: in vivo
[4] = Toxicity in BALB/c mouse xenografted with human MGC-803 cells assessed as morphological change in spleen at 5 mg/kg,ip administrated for 21 consecutive days by hematoxylin and eosin staining method; assay type: organism-based; settings: in vivo
[5] = target: T1, Signal transducer and activator of transcription 1-alpha/beta (Homo sapiens) (UniProt P42224); assay: Inhibition of STAT1 in human AGS cells assessed as inhibition of STAT1 phosphorylation level at Tyr701 at 0.3 to 3 uM by western blot assay; assay type: cell-based; settings: dose 0.3-3 µM
T1 sequence (whole entry): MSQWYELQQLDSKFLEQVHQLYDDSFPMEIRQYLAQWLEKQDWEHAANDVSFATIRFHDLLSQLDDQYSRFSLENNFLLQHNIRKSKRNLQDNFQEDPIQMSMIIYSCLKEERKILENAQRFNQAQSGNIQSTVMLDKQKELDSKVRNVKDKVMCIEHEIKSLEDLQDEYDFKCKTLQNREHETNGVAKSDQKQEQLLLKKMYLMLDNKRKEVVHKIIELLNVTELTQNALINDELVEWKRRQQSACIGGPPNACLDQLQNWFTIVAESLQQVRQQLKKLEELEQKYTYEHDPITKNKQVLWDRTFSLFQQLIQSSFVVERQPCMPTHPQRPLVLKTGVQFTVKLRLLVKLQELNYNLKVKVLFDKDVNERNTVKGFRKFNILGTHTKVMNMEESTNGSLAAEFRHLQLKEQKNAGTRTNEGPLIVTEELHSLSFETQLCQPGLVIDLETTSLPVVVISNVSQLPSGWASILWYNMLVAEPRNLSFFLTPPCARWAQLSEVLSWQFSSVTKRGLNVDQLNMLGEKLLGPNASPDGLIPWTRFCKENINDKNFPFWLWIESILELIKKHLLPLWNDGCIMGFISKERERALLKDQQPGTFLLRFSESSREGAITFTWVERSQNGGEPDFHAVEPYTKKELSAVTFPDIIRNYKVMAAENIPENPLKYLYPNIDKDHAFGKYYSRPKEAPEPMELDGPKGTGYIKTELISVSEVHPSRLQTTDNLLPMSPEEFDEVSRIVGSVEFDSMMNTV

MGC-803 [6] = assay: Antiproliferative activity against human MGC-803 cells assessed as reduction in cell viability incubated for 72 hrs by CCK-8 assay; assay type: functional, cell-based; settings: MGC-803, 72 h
AGS [7] = assay: Induction of apoptosis in human AGS cells assessed as early apoptotic cells at 3 uM incubated for 48 hrs by Annexin V-FITC/PI staining based flow cytometry method (reference value: 2.38 %); assay type: functional
[8] = target: Signal transducer and activator of transcription 3 (Homo sapiens) (UniProt P40763); assay: Inhibition of STAT3 in human AGS cells assessed as inhibition of total STAT3 protein level at 0.3 to 3 uM by western blot assay; assay type: cell-based; settings: dose 0.3-3 µM
[9] = target: Signal transducer and activator of transcription 3 (Homo sapiens) (UniProt P40763); assay: Thermal stabilization of STAT3 in human AGS cells at 1 uM at 37 to 54 degreeC incubated for 1 hr by cellular thermal shift assay; assay type: cell-based
MGC-803 [10] = assay: Antitumor activity against human MGC-803 cells xenografted in BALB/c mouse assessed as tumor growth inhibition at 15 mg/kg,ip administrated for 21 consecutive days relative to control; assay type: functional; settings: read-out: TGI
[11] = Toxicity in BALB/c mouse xenografted with human MGC-803 cells assessed as body weight loss at 5 mg/kg,ip administrated for 21 consecutive days; assay type: organism-based; settings: in vivo
MGC-803 [12] = assay: Antitumor activity against human MGC-803 cells xenografted in BALB/c mouse assessed as inhibition of tumor volume at 5 to 15 mg/kg,ip administrated for 21 consecutive days; assay type: functional, organism-based; settings: dose 5-15 mg/kg
AGS [13] = assay: Induction of apoptosis in human AGS cells assessed as viable cells at 0.3 uM incubated for 48 hrs by Annexin V-FITC/PI staining based flow cytometry method (reference value: 94.8 %); assay type: functional; settings: read-out: Activity
[14] = target: Signal transducer and activator of transcription 3 (Homo sapiens) (UniProt P40763); assay: In vivo inhibition of STAT3 in BALB/c mouse xenografted with human MGC-803 cells assessed as reduction of c-Myc expression in tumor at 5 mg/kg,ip administrated for 21 consecutive days by immunohistochemistry analysis; assay type: functional, organism-based
[15] = target: Signal transducer and activator of transcription 3 (Homo sapiens) (UniProt P40763); assay: Inhibition of HA-tagged STAT3 (unknown origin) dimerization transfected in HEK293T cells at 0.3 to 3 uM incubated for 24 hrs followed by IL-6 stimulation and measured after 1 hr by immunoprecipitation assay; assay type: cell-based; settings: dose 0.3-3 µM, time 25.0 hrs
[16] = target: Signal transducer and activator of transcription 3 (Homo sapiens) (UniProt P40763); assay: Inhibition of STAT3 in human MGC-803 cells assessed as inhibition of STAT3 phosphorylation level at Tyr705 at 0.3 to 3 uM by western blot assay; assay type: cell-based; settings: dose 0.3-3 µM
[17] = Toxicity in BALB/c mouse xenografted with human MGC-803 cells assessed as morphological change in heart at 15 mg/kg,ip administrated for 21 consecutive days by hematoxylin and eosin staining method; assay type: organism-based; settings: in vivo
[18] = Toxicity in BALB/c mouse xenografted with human MGC-803 cells assessed as morphological change in kidney at 5 mg/kg,ip administrated for 21 consecutive days by hematoxylin and eosin staining method; assay type: organism-based; settings: in vivo
MGC-803 [19] = assay: Antitumor activity against human MGC-803 cells xenografted in BALB/c mouse assessed as reduction of Ki67 expression level in tumor at 5 mg/kg,ip administrated for 21 consecutive days by immunohistochemistry analysis; assay type: functional, organism-based
MGC-803 [20] = assay: Inhibition of cell migration in human MGC-803 cells at 0.03 to 0.3 uM incubated for 48 hrs by wound healing assay based microscopic analysis; assay type: functional; settings: dose 0.03-0.3 µM
MGC-803 [21] = assay: Antitumor activity against human MGC-803 cells xenografted in BALB/c mouse assessed as tumor growth inhibition at 5 mg/kg,ip administrated for 21 consecutive days relative to control; assay type: functional; settings: read-out: TGI
[22] = Toxicity in BALB/c mouse xenografted with human MGC-803 cells assessed as morphological change in spleen at 15 mg/kg,ip administrated for 21 consecutive days by hematoxylin and eosin staining method; assay type: organism-based; settings: in vivo

Sequence of Signal transducer and activator of transcription 3 (Homo sapiens) (P40763 whole entry): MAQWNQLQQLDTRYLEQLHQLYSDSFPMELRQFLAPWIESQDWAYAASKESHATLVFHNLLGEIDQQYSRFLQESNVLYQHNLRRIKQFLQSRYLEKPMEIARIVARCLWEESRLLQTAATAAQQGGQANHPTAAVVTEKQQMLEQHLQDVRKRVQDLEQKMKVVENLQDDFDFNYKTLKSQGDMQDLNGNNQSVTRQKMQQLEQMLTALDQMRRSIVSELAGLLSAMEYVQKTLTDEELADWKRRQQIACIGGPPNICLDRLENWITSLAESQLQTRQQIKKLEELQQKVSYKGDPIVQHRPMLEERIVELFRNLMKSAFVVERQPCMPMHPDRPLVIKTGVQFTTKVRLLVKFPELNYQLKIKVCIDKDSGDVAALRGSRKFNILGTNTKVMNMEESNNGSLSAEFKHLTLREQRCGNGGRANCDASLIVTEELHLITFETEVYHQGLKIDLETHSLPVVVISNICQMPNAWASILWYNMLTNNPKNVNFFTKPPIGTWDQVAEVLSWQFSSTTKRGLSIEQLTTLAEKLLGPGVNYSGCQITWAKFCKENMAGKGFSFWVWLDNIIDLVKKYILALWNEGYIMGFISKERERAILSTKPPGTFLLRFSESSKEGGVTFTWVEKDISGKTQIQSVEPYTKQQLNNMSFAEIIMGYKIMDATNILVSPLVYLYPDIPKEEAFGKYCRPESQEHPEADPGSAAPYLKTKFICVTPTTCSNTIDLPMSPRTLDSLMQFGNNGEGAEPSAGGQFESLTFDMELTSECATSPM

inhibition [1]: Dose-Dependent Effect
inhibition [5]: inactive
IC50 (MGC-803 [6]): 0.9 µM
inhibition [8]: inactive
Activity [9]: Active
inhibition [14]: Active
inhibition [15]: Dose-Dependent Effect
inhibition [16]: Dose-Dependent Effect
SMILES: Cc1cc(NC(=O)c2ccc([N+](=O)[O-])o2)ccc1-c1cnc2ccccn12
Activity [2]: Non-Toxic
Activity [3]: Non-Toxic
Activity [4]: Non-Toxic
Activity (AGS [7]): 12.1%
inhibition in vivo at 15 mg/kg (MGC-803 [10]): 73.4%
Activity [11]: Non-Toxic
inhibition (MGC-803 [12]): Dose-Dependent Effect
viability at 0.3 µM (AGS [13]): 93.7%
Activity [17]: Non-Toxic
Activity [18]: Non-Toxic
inhibition (MGC-803 [19]): Active
inhibition (MGC-803 [20]): Dose-Dependent Effect
inhibition in vivo at 5 mg/kg (MGC-803 [21]): 47.1%
Activity [22]: Non-Toxic
